Measured values: ChEMBL document CHEMBL5321209, “Design, synthesis of novel benzimidazole derivatives as ENL inhibitors suppressing leukemia cells viability via downregulating the expression of MYC” (Eur J Med Chem, 2023)

What was measured:
[1] = target: T1, Protein ENL (Homo sapiens) (UniProt Q03111); conditions: dose 333.0 nM, time 45.0 min
T1 sequence (whole entry): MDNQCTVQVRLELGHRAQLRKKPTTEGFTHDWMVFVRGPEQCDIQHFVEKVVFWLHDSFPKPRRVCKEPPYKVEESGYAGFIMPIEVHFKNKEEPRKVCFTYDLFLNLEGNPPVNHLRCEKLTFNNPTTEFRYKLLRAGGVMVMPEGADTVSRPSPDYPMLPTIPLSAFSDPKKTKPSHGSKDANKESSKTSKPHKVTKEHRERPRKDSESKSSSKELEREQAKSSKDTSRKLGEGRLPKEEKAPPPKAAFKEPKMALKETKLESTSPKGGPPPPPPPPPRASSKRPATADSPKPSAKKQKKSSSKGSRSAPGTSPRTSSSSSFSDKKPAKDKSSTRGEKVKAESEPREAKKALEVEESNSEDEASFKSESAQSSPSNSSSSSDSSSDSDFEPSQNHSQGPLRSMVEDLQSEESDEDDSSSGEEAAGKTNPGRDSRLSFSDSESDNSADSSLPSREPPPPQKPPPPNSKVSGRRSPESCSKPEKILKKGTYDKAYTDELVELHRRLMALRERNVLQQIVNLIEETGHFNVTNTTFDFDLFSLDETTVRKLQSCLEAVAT

Protein ENL [2] = target: T2, Protein ENL (Homo sapiens, UniProt Q03111); assay: Inhibition of C-terminal 6xHis-tagged ENL YEATS domain (1 to 148 residues) (unknown origin) expressed in Escherichia coli BL21(DE3) cells using biotin-H3K27ace as substrate incubated for 45 mins by alpha screen assay
T2 sequence (Q03111 whole entry): T1 sequence (whole entry)

[3] = target: T1, Protein ENL (Homo sapiens); conditions: dose 111.0 nM, time 45.0 min
[4] = target: T1, Protein ENL (Homo sapiens); conditions: dose 12.5 µM
Description: Binding affinity to C-terminal 6xHis-tagged ENL YEATS domain (1 to 148 residues) (unknown origin) expressed in Escherichia coli BL21(DE3) cells assessed as thermal stability by measuring change in melting temperature at 12.5 uM by SYPRO dye-based thermal shift assay

MOLM-13 [5] = assay: Antiproliferative activity against human MOLM-13 cells assessed as inhibition of cell growth measured after 72 hrs by Cell Titer-Glo luminescent assay; format: functional, cell-based; conditions: MOLM-13, 72 h
[6] = target: T1, Protein ENL (Homo sapiens); conditions: dose 50.0 µM
[7] = target: T1, Protein ENL (Homo sapiens); conditions: dose 6.3 µM
Description: Binding affinity to C-terminal 6xHis-tagged ENL YEATS domain (1 to 148 residues) (unknown origin) expressed in Escherichia coli BL21(DE3) cells assessed as thermal stability by measuring change in melting temperature at 6.3 uM by SYPRO dye-based thermal shift assay

MOLM-13 [8] = assay: Potency index, ratio of SGC-iMLLT IC50 to test compound IC50 for antiproliferative activity against human MOLM-13 cells; format: functional
MV4-11 = assay: cells; conditions: Homo sapiens, MV4-11, 72 h
Description: Antiproliferative activity against human MV4-11 cells assessed as inhibition of cell growth measured after 72 hrs by Cell Titer-Glo luminescent assay

[9] = target: T1, Protein ENL (Homo sapiens); conditions: dose 25.0 µM
Protein ENL [10] = target: T2, Protein ENL; assay: Binding affinity toC-terminal 6xHis-tagged ENL YEATS domain (1 to 148 residues) (unknown origin) assessed as dissociation constant by BLI assay
Protein ENL [11] = target: T2, Protein ENL; assay: Inhibition of recombinantC-terminal 6xHis-tagged ENL YEATS domain (1 to 148 residues) (unknown origin) expressed in Escherichia coli BL21(DE3) cells using H3(13-32)K27cr as substrate by FRET assay

SMILES	inhibition [1] [%]	IC50 (Protein ENL [2]) [nM]	inhibition [3] [%]	other results
CCn1ncc2cc(C(=O)Nc3ccc4[nH]c(CN5CCC[C@@H]5C)nc4c3)ccc21	100	18.9	98.3	
C[C@H]1CCCN1Cc1nc2cc(NC(=O)c3ccc4c(cnn4CCN)c3)ccc2[nH]1	100	28.2	100	
CCn1cc2cc(C(=O)Nc3ccc4[nH]c(CN5CCC[C@@H]5C)nc4c3)ccc2n1	99.7	36.7	82.4	
C[C@H]1CCCN1Cc1nc2cc(NC(=O)c3ccc4nn(CCN)cc4c3)ccc2[nH]1	98.4	17.2	84.1	
C[C@H]1CCCN1Cc1nc2cc(NC(=O)c3ccc4nn(CCNC(=O)OC(C)(C)C)cc4c3)ccc2[nH]1	99.1	37.9	56	
C[C@H]1CCCN1Cc1nc2cc(NC(=O)c3ccc4c(cnn4CCN4CC(O)C(O)C4C(O)CO)c3)ccc2[nH]1 (stereo partly drawn)	99.3	32.3	84.6	
C[C@H]1CCCN1Cc1nc2cc(NC(=O)c3ccc4c(cnn4CCNC(=O)Nc4cccc(F)c4)c3)ccc2[nH]1	97.8	46	67.6	
Cc1noc2cc(C(=O)Nc3ccc4[nH]c(CN5CCC[C@@H]5C)nc4c3)ccc12	99.9	10.7	99.1	ΔTm [4]: 2.8 °C; IC50 (MOLM-13 [5]): 37900 nM; ΔTm [6]: 4.9 °C; ΔTm [7]: 1.8 °C; Ratio IC50 (MOLM-13 [8]): 2; IC50 (MV4-11): 51400 nM; ΔTm [9]: 3.9 °C
Cc1noc2ccc(C(=O)Nc3ccc4[nH]c(CN5CCC[C@@H]5C)nc4c3)cc12	99.3	48.8	87.3	
O=C(/C=C/c1ccc(-n2ccnc2)cc1)N1CCN(C(=O)c2ccco2)CC1				Kd (Protein ENL [10]): 14000 nM; IC50 (Protein ENL [11]): 19000 nM
CCCCn1ncc2cc(C(=O)Nc3ccc4[nH]c(CN5CCC[C@@H]5C)nc4c3)ccc21	100	17	98	
CCCCn1cc2cc(C(=O)Nc3ccc4[nH]c(CN5CCC[C@@H]5C)nc4c3)ccc2n1	100	35.3	98.4	
Cc1ccccc1C(=O)NCCn1ncc2cc(C(=O)Nc3ccc4[nH]c(CN5CCC[C@@H]5C)nc4c3)ccc21	96.1	35.4	68.4	
C[C@H]1CCCN1Cc1nc2cc(NC(=O)c3ccc4c(c3)c3cc(F)ccc3c(=O)n4C)ccc2[nH]1	99.2	22.1	90.8	
